The values that follow come from patent publication US5328909A, “Cyclopropenone derivatives” (Mitsubishi Kasei Corporation, priority 1991, dated 1994).

Read-outs that look alike come from different tables or passages of the source.

One series concerns production of IgE. Particulars: cited from earlier work.
For series [1], the system named is rat with enhanced bone destruction by administration of parathyroid hormone. Particulars: cited from earlier work.
A further series concerns cataract animal models. Particulars: cited from earlier work.
Series [2] concerns brain trauma models of rat. Particulars: cited from earlier work.
The next series has as its target T1, m-calpain (Rattus norvegicus, UniProt Q07009).
T1 construct: m-calpain was purified from rat brain; from tissue; host or cells: rat brain
T1 sequence (Q07009 20-700 limits assumed): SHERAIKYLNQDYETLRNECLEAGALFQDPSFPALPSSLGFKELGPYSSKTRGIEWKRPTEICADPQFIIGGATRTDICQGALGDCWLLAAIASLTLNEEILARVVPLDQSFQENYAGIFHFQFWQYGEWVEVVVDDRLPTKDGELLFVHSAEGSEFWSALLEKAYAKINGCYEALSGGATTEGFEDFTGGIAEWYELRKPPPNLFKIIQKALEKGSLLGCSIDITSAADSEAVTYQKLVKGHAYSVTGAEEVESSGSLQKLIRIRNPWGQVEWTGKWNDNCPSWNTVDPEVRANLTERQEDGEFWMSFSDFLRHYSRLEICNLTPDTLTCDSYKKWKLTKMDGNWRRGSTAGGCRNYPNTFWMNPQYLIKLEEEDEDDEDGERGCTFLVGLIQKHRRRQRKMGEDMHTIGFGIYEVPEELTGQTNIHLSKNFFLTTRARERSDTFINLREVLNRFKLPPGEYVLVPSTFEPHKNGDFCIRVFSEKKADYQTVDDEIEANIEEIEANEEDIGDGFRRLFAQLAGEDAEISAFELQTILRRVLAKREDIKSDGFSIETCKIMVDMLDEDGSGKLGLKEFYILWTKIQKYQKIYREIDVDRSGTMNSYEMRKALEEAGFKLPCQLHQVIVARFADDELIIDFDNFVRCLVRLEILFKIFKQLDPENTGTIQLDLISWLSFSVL
T1 sequence (Q64537 1-270 partner): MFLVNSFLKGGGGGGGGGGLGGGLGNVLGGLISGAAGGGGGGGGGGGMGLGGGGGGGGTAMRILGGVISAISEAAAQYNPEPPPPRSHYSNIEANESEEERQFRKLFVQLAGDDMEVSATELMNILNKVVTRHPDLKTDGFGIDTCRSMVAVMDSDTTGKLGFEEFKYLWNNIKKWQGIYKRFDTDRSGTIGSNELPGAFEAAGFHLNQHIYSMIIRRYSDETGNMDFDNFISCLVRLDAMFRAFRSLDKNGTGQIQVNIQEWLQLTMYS
Put plainly: Thiol protease inhibitory activity against m-calpain purified from rat brain. Format: biochemical. In outline: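 Papain and bovine cathepsin B assayed by a published method; cathepsin L purified from rat kidney and tested as for cathepsin B. m-Calpain purified from rat brain and assayed by a separate published method.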

Another series concerns the target T2, cathepsin B (Bos taurus, UniProt P07688).
T2 construct: purchased Sigma C-6286
In words: Thiol protease inhibitory activity against cathepsin B (C-6286, Sigma). In kind it is biochemical. The protocol: (§1) Inhibitory activity against papain (P-3125, Sigma) and cathepsin B (C-6286, Sigma) was assayed according to the method described in a literature [Biochemical Journal, 201, 189 (1982)]. Capthesin L was purified from rat kidney according to the method in a literature [Journal of Biochemistry, 100, 35 (1986)], and the inhibitory activity against it was assayed in the same manner as described in the above literature for cathepsin B. Further, m-calpain was purified from rat brain according to a known method [Journal of Biological Chemistry, 254, p.3210 (1984)] and the inhibitory activity against it was assayed by a method described in a literature [Journal of Biological Chemistry, 259, 12489 (1984)]. The results are showing in Tables 3 and 4. It is evident from Tables 3 and 4 that the compounds in the present invention have a potent inhibitory activity against thiol proteases such as papain, cathepsin B, cathepsin L, m-calpain or the like.

The next series concerns the target T3, papain (Carica papaya, UniProt P00784).
T3 sequence (P00784 134-345): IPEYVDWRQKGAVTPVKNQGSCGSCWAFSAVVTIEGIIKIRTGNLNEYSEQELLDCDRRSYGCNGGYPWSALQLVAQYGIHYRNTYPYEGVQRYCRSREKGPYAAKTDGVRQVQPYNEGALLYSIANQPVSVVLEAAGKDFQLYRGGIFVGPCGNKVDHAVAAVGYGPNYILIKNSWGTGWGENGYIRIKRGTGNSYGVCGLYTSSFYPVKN
Put plainly: Thiol protease inhibitory activity against papain (P-3125, Sigma). Format: biochemical. Particulars: Table 3; read-out: IC50 (μM) papain. The protocol: as §1

In a further series the target is T4, cathepsin L (Rattus norvegicus, UniProt P07154).
T4 construct: Capthesin L was purified from rat kidney; from tissue; host or cells: rat kidney
T4 sequence (P07154 114-288 limits assumed): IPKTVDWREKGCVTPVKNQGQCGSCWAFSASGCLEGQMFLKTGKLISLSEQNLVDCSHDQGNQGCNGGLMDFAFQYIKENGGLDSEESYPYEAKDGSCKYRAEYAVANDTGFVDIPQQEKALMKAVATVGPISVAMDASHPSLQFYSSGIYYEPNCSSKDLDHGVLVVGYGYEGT
T4 sequence (P07154 291-334 limits assumed): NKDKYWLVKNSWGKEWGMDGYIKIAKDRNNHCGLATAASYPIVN
Put plainly: Thiol protease inhibitory activity against cathepsin L purified from rat kidney. Format: biochemical. The protocol: as §1

For series [3], the system named is aggregation of platelet caused by thrombin. Conditions: cited from earlier work.
In series [4] the test system is experimental muscular dystrophy hamster. Conditions: cited from earlier work.
For series [5], the system named is cardiac infarction animal models. Conditions: cited from earlier work.
The nature of series [6]: Acute oral toxicity, rats observed for 7 days. Particulars: rat, in vivo, suspension in 0.5% CMC-Na aqueous solution, SD female and male rats, 7 days observation. The protocol:
The LD50 value of the compound (I) prepared in Example 1 is: >2,000 mg/kg.

The subject of series [7] is microtubule-associated protein. Particulars: after the brain ischemia; cited from earlier work.
Setting [8] is: Table 3, rat brain enzyme, read-out: IC50 (μM) m-calpain.
The mark [9] stands for this setting: Table 3, read-out: IC50 (μM) cathepsin B.
The mark [10] stands for this setting: Table 3, rat kidney enzyme, read-out: IC50 (μM) cathepsin L.

For `NC(N)=NCCCCNC(=O)[C@H](Cc1ccccc1)NC(=O)[C@H]1O[C@@H]1C(=O)O` [Estatin A], in the series with production of IgE, the “production of IgE” value is given as “specifically inhibit the production of IgE” and the “production of IgG” value is listed as “without affecting on the production of IgG”. Moreover, in series [1], the “calcium concentration in blood” value was “decrease” and the “hydroxyproline concentration in blood” value is reported as “decrease”.
In the case of `CC(C)C[C@H](NC(=O)[C@H]1O[C@@H]1C(=O)O)C(=O)NCCCCNC(=N)N` [E-64], in [1], the “calcium concentration in blood” value is “decrease” and the “hydroxyproline concentration in blood” value is listed as “decrease”. For the same compound, the effect on cataract entry with cataract animal models was “effective on cataract”.
As for `CC(=O)N[C@@H](CC(C)C)C(=O)N[C@@H](CC(C)C)C(=O)N[C@H](C=O)CCCNC(=N)N` [leupetin], the axon protection entry in series [2] is on record as “can protect axon”.
Consider `CCCC[C@H](NC(=O)[C@H](CC(C)C)NC(=O)OCC1CCCCC1)C(O)c1c(-c2ccc([Si](C)(C)C)o2)c1=O` (stereo partly drawn) [114 (No. 376), 2-[(2S)-2-((S)-2-cyclohexylmethoxycarbonylamino-4-methylvalerylamino)-1-hydroxy-1-hexyl]-3-(5-trimethylsilyl-2-furil)cyclopropenone], for which the IC50 (in general, the concentration at which inhibition is half-maximal) against m-calpain amounted to 5.6 µM; against cathepsin B, 2.5 µM; at papain, 0.68 µM; at cathepsin L, 0.58 µM.
For `CCOC(=O)[C@H]1O[C@@H]1C(=O)N[C@@H](CC(C)C)C(=O)NCCC(C)C` [E-64-d], the aggregation of platelet result in [3] is reported as “suppressed aggregation of platelet”. In addition, the life-prolonging effect entry in series [4] is “life-prolonging effect”.
In the case of `CC(C)C[C@H](NC(=O)OCc1ccccc1)C(=O)N[C@@H](C(C)C)C(O)c1c(-c2ccccc2)c1=O` (stereo partly drawn) [26 (No. 83), 2-[(2S)-2-((S)-2-benzyloxycarbonylamino-4-methylvalerylamino)-1-hydroxy-3-methylbutyl]-3-phenylcyclopropenone], the IC50 at m-calpain (setting [8]) is 1.6 µM; at cathepsin B (setting [9]) it was 43 µM; at papain, 4.2 µM; on cathepsin L (setting [10]) it was 5.8 µM.
Take `CCCC[C@H](NC(=O)[C@H](CC(C)C)NC(=O)OCc1ccccc1)C(O)c1cc1=O` (stereo partly drawn) [7 (No. 16), 2-[(2S)-2-((S)-2-benzyloxycarbonylamino-4-methylvalerylamino)-1-hydroxyhexyl]cyclopropenone]: the IC50 was found to be 2.4 µM on m-calpain (setting [8]), 0.32 µM on cathepsin B (setting [9]), 0.14 µM at papain and 0.24 µM at cathepsin L (setting [10]).
With `CCOC(=O)[C@@H]1O[C@H]1C(=O)NC(CC(C)C)C(=O)N1CCN(Cc2ccc(OC)c(OC)c2OC)CC1.CCOC(=O)[C@@H]1O[C@H]1C(=O)NC(CC(C)C)C(=O)N1CCN(Cc2ccc(OC)c(OC)c2OC)CC1.O=S(=O)(O)O` (stereo partly shown) [NCO-700], the “effect on cardiac infarction” value in series [5] is on record as “effective on cardiac infarction”.
For `CC(C)C[C@H](NC(=O)OCC1CCCCC1)C(=O)N[C@@H](C(C)C)[C@@H](O)c1c(-c2ccccc2)c1=O` [1 (No. 77), 2-[(1S,2S)-2-{(s)-2-cyclohexylmethoxycarbonylamino-4-methylvalerylamino}-1-hydroxy-3-methylbuthyl]-3-phenylcyclopropenone], the IC50 at m-calpain (setting [8]) was 1.6 µM; at cathepsin B (setting [9]), 0.71 µM; at papain, 0.054 µM; at cathepsin L (setting [10]), 0.00086 µM. For the same compound, in [6], the LD50 – broadly, the dose expected to kill half of the subjects tested – at 168 h is greater than 2000 mg/kg.
As for `CC(C)C[C@H](NC(=O)OCc1ccccc1)C(=O)N[C@@H](CC(C)C)C(O)c1cc1=O` (stereo partly drawn) [5 (No. 10), 2-[(2S)-2-((S)-2-benzyloxycarbonylamino-4-methylvalerylamino)-1-hydroxy-4-methylpentyl]cyclopropenone], the IC50 is 2.3 µM at m-calpain (setting [8]), 3 µM at cathepsin B (setting [9]), greater than 100 µM on papain and 0.75 µM at cathepsin L (setting [10]).
On to `CC(C)CCNC(=O)[C@H](CC(C)C)NC(=O)[C@H]1O[C@@H]1C(=O)O` [E-64-C], for which the “degradation of microtubule-associated protein” value in [7] is given as “inhibits the degradation of microtubule-associated protein”.
Consider `CC(C)C[C@H](NC(=O)OCC1CCCCC1)C(=O)N[C@@H](C(C)C)[C@H](O)c1c(-c2ccccc2)c1=O` [2 (No. 77), 2-[(1R, 2S)-2-{(S)-2-cyclohexylmethoxycarbonylamino-4-methylvalerylamino}-1-hydroxy-3-methylbutyl]-3-phenylcyclopropenone], for which the IC50 at m-calpain (setting [8]) was 3.3 µM; on cathepsin B (setting [9]) it was 0.044 µM; at papain it was 22 µM; on cathepsin L (setting [10]), 0.0012 µM.
